Assay results reported in patent US11154569B2, “Ruthenium μ-nitrido complexes and their use as calcium uptake inhibitors” (CORNELL UNIVERSITY, priority 2018, dated 2021).

Key:
[1] = target: T1, mitochondrial calcium uniporter (MCU) (Homo sapiens, UniProt Q8NE86); test: Cytoplasmic and mitochondrial Ca2+ dynamics in intact HeLa cells after histamine; assay type: cell-based; set-up: 30 min) and Rhod-2 AM; endogenous in cells; host or cells: HeLa (intact; some experiments with transfected Ca2+ sensors R-GECO1 and GCamP6-mt, MCU itself not transfected); details: for inhibition of MCU-mediated mCa2+ uptake in intact cells: intact HeLa cells, 50 μM for 30 minutes, histamine 100 μM, Rhod-2 AM and GCamP6-mt; for cytosolic calcium dynamics in intact cells: intact cells stimulated with histamine
T1 sequence (Q8NE86 51-351): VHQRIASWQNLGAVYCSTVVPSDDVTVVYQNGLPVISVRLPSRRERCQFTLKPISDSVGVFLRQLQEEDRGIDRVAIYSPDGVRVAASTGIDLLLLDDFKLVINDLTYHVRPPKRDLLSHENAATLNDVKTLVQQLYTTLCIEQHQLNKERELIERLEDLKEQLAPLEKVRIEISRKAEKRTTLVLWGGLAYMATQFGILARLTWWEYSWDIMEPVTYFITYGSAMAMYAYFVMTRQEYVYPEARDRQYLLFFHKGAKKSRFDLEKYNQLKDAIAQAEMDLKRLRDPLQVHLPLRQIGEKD
T1 sequence (Q9H4I9 48-107 partner limits assumed): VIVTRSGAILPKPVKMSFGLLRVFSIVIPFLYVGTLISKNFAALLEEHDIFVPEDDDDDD
Method: HeLa cells were loaded with Fluo-4-AM (5 μM; 30 min) and Rhod-2 AM (2 μM; 50 min) in extracellular medium as previously described (F. Perocchi et al, Nature 2010, 467, 291-296). Coverslips were mounted in an open perfusion microincubator at 37° C. and imaged. After 1 minute of baseline recording, histamine (100 μM) was added, and confocal images were recorded every 3 seconds at 488 and 561 nm excitation using a 40× oil objective. Images were analyzed and quantified by using ImageJ (NIH).
HeLa cells were transiently transfected with genetically encoded cytosolic and mitochondrial targeted Ca^2+ sensors R-GECO1 and GCamP6-mt plasmids. After 48 hours, the transfected cells were treated with MCU inhibitors (C1, C-2, and C-3; 50 μM). After 1 minute of baseline recording, histamine (100 μM) was added, and the change of R-GECO1 and GCamP6-mt fluorescence was measured with 488-nm and 561-nm excitation on a confocal microscope equipped with a 40× oil objective. Images were analyzed and quantified by using ImageJ (NIH).
Encouraged by the high cell permeability and mitochondrial selectivity of C-2, the capability of this complex to inhibit MCU-mediated mCa^2+ uptake in intact, non-permeabilized cells was investigated Briefly, HeLa cells were loaded with the cytosolic calcium concentration ([Ca^2+]) indicator Fluo-4 AM and the mitochondrial calcium concentration ([…]) indicator Rhod-2 AM in the presence or absence of C-1, C-2, and C-3 (50 μM). Cells were stimulated with the GPCR agonist histamine (100 μM) to rapidly elevate cCa^2+ levels to induce mCa^2+ uptake (Z. Dong et al., Mol. Cell 2017, 65, 1014-1028).
FIGS. 3A and 3B are graphs showing results of cytosolic ([Ca^2+]e, Fluo-4 AM) and mitochondrial ([Ca^2+]m, Rhod-2 AM) calcium transients in HeLa cells after treatment with histamine (100 μM) that were pretreated with or without C-1, C-2, or C-3 (50 μM) for 30 minutes. FIGS. 3C and 3D are graphs showing results of cytosolic ([Ca^2+]e, R-GECO) and mitochondrial ([Ca^2+]m, GCamP6-mt)) calcium transients in HeLa cells after treatment with histamine (100 μM) that were pretreated with or without C-1, C-2, or C-3 (50 μM) for 30 minutes. HeLa cells were co-transfected with R-GECO1 and GCamP6-mt. 48 hours post-transfection. Data are represented as mean±SEM. *p<0.05. n=3-6.

[2] = system: mitochondria isolated from NRVMs; test: Mitochondrial swelling assay (Ca2+-induced mPTP opening); assay type: cell-based, rat; details: 50 μM compound, Ca2+ 250 μM
Method: NRVMs were homogenized in ice-cold mitochondrial isolation buffer (10 mM sucrose, 200 mM mannitol, 5 mM HEPES, and 1 mM EGTA, pH 7.4) containing 1 mg/mL fatty acid-free bovine serum albumin. The homogenate was centrifuged for 10 minutes at 1000×g, and the supernatant was centrifuged again at 14,000×g for 10 minutes. The mitochondrial pellets were washed twice and centrifuged at 11,200×g. The isolated mitochondria (1 mg protein) were added to 0.2 mL of buffer mitochondrial swelling buffer (70 mM sucrose, 230 mM mannitol, 3 mM HEPES, 2 mM Trisphosphate, 5 mM succinate). Mitochondrial swelling was measured by decrease in absorbance at 540 nm after addition of Ca^2+ (250 μM). To study the protective effect of C-2 and Ru360, mitochondrial swelling assay was performed in mitochondria treated with or without the compounds (50 μM).
Additionally, the swelling of mitochondria isolated from NRVMs subjected to H/R injury in the absence or presence of C-2 or Ru360 was monitored. After baseline measurement of the absorbance at 600 nm, a single bolus of Ca^2+ (250 μM) was added to induce mPTP opening. As known, the decrease in mitochondrial absorbance indicates mitochondrial swelling and subsequent mPTP opening.

| Molecule | inhibition of MCU-mediated mCa2+ uptake in intact cells [1] | mitochondrial swelling (decrease in absorbance after Ca2+ addition) [2] | inhibition of MCU-mediated mCa2+ uptake in intact cells ([1]; listed as Ru265) | cytosolic calcium dynamics in intact cells [1] | cytosolic calcium dynamics in intact cells ([1]; listed as Ru265) |
| --- | --- | --- | --- | --- | --- |
| [Ru2(μ-N)(en)4Cl2]Cl3 [C-3] | did not show appreciable inhibition of mCa^2+ uptake |  |  |  |  |
| N.N.N.N.N.N.N.N.[Cl-].[Cl-].[N-3].[Ru+4].[Ru+4] [C-2, [Ru2(μ-N)(NH3)8Cl2]Cl3] | significant inhibition of MCU-mediated mCa^2+ uptake | no decrease in absorbance was observed | most effective MCU-inhibition in non-permeabilized cells | normal cytosolic calcium dynamics | without any effect on intracellular Ca^2+ dynamics |
| N.N.N.N.N.N.N.N.O=C[O-].O=C[O-].[O-2].[Ru+3].[Ru+4] [Ru360, reference compound] |  | no decrease in absorbance was observed |  |  |  |
